Experimental data taken from patent US11498899B2, “Nitrone herbicides” (FMC Corporation, priority 2016, dated 2022).

How the values were obtained:
[1] = system: pigweed (Amaranthus retroflexus); test: Test A postemergence, visual injury rating 0-100; type: in vivo; details: 0 to 100 scale
[2] = system: wheat (Triticum aestivum); test: Test A postemergence, visual injury rating 0-100; type: in vivo; details: 0 to 100 scale
[3] = system: ryegrass, Italian (Italian ryegrass, Lolium multiflorum); test: Test A postemergence, visual injury rating 0-100; type: in vivo; details: 0 to 100 scale
corn (Zea mays) = test: Test A postemergence, visual injury rating 0-100; type: in vivo; details: 0 to 100 scale
[4] = system: blackgrass (Alopecurus myosuroides); test: Test A postemergence, visual injury rating 0-100; type: in vivo; details: 0 to 100 scale
[5] = system: foxtail, giant (giant foxtail, Setaria faberii); test: Test A postemergence, visual injury rating 0-100; type: in vivo; details: 0 to 100 scale
[6] = system: barnyardgrass (Echinochloa crus-galli); test: Test A postemergence, visual injury rating 0-100; type: in vivo; details: 0 to 100 scale
[7] = system: galium (catchweed bedstraw, Galium aparine); test: Test A postemergence, visual injury rating 0-100; type: in vivo; details: 0 to 100 scale
[8] = system: ragweed (common ragweed, Ambrosia elatior); test: Test A postemergence, visual injury rating 0-100; type: in vivo; details: 0 to 100 scale
kochia (Kochia scoparia) [9] = test: Test A postemergence, visual injury rating 0-100; type: in vivo; details: 0 to 100 scale
[10] = system: barnyardgrass (Echinochloa crus-galli); test: Test A preemergence, visual injury rating 0-100 (0 no effect, 100 complete control); type: in vivo; details: for Barnyardgrass plant response rating: 31 g ai/ha, 0 to 100 scale (0 no effect, 100 complete control), approx. 10 days; for Barnyardgrass plant response rating (0 to 100 scale): 125 g ai/ha
[11] = system: pigweed (Amaranthus retroflexus); test: Test A preemergence, visual injury rating 0-100; type: in vivo; details: for Pigweed plant response rating: 31 g ai/ha, 0 to 100 scale (0 no effect, 100 complete control), approx. 10 days; for Pigweed plant response rating (0 to 100 scale): 125 g ai/ha
[12] = system: ryegrass, Italian (Italian ryegrass, Lolium multiflorum); test: Test A preemergence, visual injury rating 0-100; type: in vivo; details: for Ryegrass, Italian plant response rating: 31 g ai/ha, 0 to 100 scale (0 no effect, 100 complete control), approx. 10 days; for Ryegrass, Italian plant response rating (0 to 100 scale): 125 g ai/ha
[13] = system: foxtail, giant (giant foxtail, Setaria faberii); test: Test A preemergence, visual injury rating 0-100; type: in vivo; details: for Foxtail, Giant plant response rating: 31 g ai/ha, 0 to 100 scale (0 no effect, 100 complete control), approx. 10 days; for Foxtail, Giant plant response rating (0 to 100 scale): 125 g ai/ha
[14] = system: ragweed (common ragweed, Ambrosia elatior); test: Test A preemergence, visual injury rating 0-100; type: in vivo; details: for Ragweed plant response rating: 31 g ai/ha, 0 to 100 scale (0 no effect, 100 complete control), approx. 10 days; for Ragweed plant response rating (0 to 100 scale): 125 g ai/ha
kochia (Kochia scoparia) [15] = test: Test A preemergence, visual injury rating 0-100; type: in vivo; details: for Kochia plant response rating: 31 g ai/ha, 0 to 100 scale (0 no effect, 100 complete control), approx. 10 days; for Kochia plant response rating (0 to 100 scale): 125 g ai/ha
[16] = system: barnyardgrass (Echinochloa crus-galli); test: Test B flooded paddy test, visual rating 0-100; details: Flood, 250 g ai/ha, applied to paddy water, rated after 13 to 15 days
[17] = system: ducksalad (Heteranthera limosa); test: Test B flooded paddy test, visual rating 0-100; details: Flood, 250 g ai/ha, applied to paddy water, rated after 13 to 15 days
rice (Oryza sativa) = test: Test B flooded paddy test, visual rating 0-100 (0 no effect, 100 complete control); details: Flood, 250 g ai/ha, applied to paddy water, rated after 13 to 15 days

SMILES	Pigweed plant response rating ([1]; 31 g ai/ha)	Pigweed plant response rating ([1]; 125 g ai/ha)	Wheat plant response rating ([2]; 31 g ai/ha)	Wheat plant response rating ([2]; 125 g ai/ha)	Ryegrass, Italian plant response rating ([3]; 31 g ai/ha)	Ryegrass, Italian plant response rating ([3]; 125 g ai/ha)	Corn plant response rating (corn (Zea mays); 31 g ai/ha)	Corn plant response rating (corn (Zea mays); 125 g ai/ha)	Blackgrass plant response rating ([4]; 31 g ai/ha)	Blackgrass plant response rating ([4]; 125 g ai/ha)	Foxtail, Giant plant response rating ([5]; 31 g ai/ha)	Foxtail, Giant plant response rating ([5]; 125 g ai/ha)	Barnyardgrass plant response rating ([6]; 31 g ai/ha)	Barnyardgrass plant response rating ([6]; 125 g ai/ha)	Galium plant response rating ([7]; 31 g ai/ha)	Galium plant response rating ([7]; 125 g ai/ha)	Ragweed plant response rating ([8]; 31 g ai/ha)	Ragweed plant response rating ([8]; 125 g ai/ha)	Kochia plant response rating (kochia (Kochia scoparia) [9]; 31 g ai/ha)	Kochia plant response rating (kochia (Kochia scoparia) [9]; 125 g ai/ha)	other results
CC1=[N+]([O-])[C@H](C(=O)Nc2cccc(F)c2F)[C@@H](c2ccc(F)c(OC(F)(F)C(F)F)c2)C1 [Compound 54, (2S,3R)—N-(2,3-Difluorophenyl)-3-[4-fluoro-3-(1,1,2,2-tetrafluoroethyoxy)phenyl]-3,4-dihydro-5-methyl-2H-pyrrole-2-carboxamide 1-oxide]	20	60	0	50	0	70	40	70	60	70	30	70	30	70	40	70	0	30	0	50	Barnyardgrass plant response rating [10]: 80; Barnyardgrass plant response rating (0 to 100 scale) [10]: 90; Pigweed plant response rating [11]: 0; Pigweed plant response rating (0 to 100 scale) [11]: 70; Ryegrass, Italian plant response rating [12]: 60; Ryegrass, Italian plant response rating (0 to 100 scale) [12]: 80; Foxtail, Giant plant response rating [13]: 90; Foxtail, Giant plant response rating (0 to 100 scale) [13]: 90; Ragweed plant response rating [14]: 0; Ragweed plant response rating (0 to 100 scale) [14]: 50; Kochia plant response rating (kochia (Kochia scoparia) [15]): 0; Kochia plant response rating (0 to 100 scale) (kochia (Kochia scoparia) [15]): 50; Barnyardgrass plant response rating (0 to 100 scale) [16]: 35; Ducksalad plant response rating (0 to 100 scale) [17]: 80; Rice plant response rating (0 to 100 scale) (rice (Oryza sativa)): 0
CC1=[N+]([O-])[C@@H](C(=O)Nc2cccc(F)c2F)[C@H](c2cccc(OC(C)C)c2)C1 [Compound 55]	0	0	0	30	50	70	0	0	0	80	10	80	20	60	0	30	0	0	0	0	Barnyardgrass plant response rating [10]: 90; Barnyardgrass plant response rating (0 to 100 scale) [10]: 90; Pigweed plant response rating [11]: 0; Pigweed plant response rating (0 to 100 scale) [11]: 0; Ryegrass, Italian plant response rating [12]: 0; Ryegrass, Italian plant response rating (0 to 100 scale) [12]: 80; Foxtail, Giant plant response rating [13]: 70; Foxtail, Giant plant response rating (0 to 100 scale) [13]: 90; Ragweed plant response rating [14]: 0; Ragweed plant response rating (0 to 100 scale) [14]: 0; Kochia plant response rating (kochia (Kochia scoparia) [15]): 0; Kochia plant response rating (0 to 100 scale) (kochia (Kochia scoparia) [15]): 0; Barnyardgrass plant response rating (0 to 100 scale) [16]: 70; Ducksalad plant response rating (0 to 100 scale) [17]: 100; Rice plant response rating (0 to 100 scale) (rice (Oryza sativa)): 0
CC1=[N+]([O-])[C@@H](C(=O)Nc2cccc(F)c2F)[C@H](c2cccc(OC(C)(C)C)c2)C1 [Compound 69]	0	20	0	0	30	70	0	0	10	70	20	90	30	70	20	40	0	20	0	0	Barnyardgrass plant response rating [10]: 90; Barnyardgrass plant response rating (0 to 100 scale) [10]: 90; Pigweed plant response rating [11]: 0; Pigweed plant response rating (0 to 100 scale) [11]: 0; Ryegrass, Italian plant response rating [12]: 20; Ryegrass, Italian plant response rating (0 to 100 scale) [12]: 80; Foxtail, Giant plant response rating [13]: 90; Foxtail, Giant plant response rating (0 to 100 scale) [13]: 100; Ragweed plant response rating [14]: 0; Ragweed plant response rating (0 to 100 scale) [14]: 0; Kochia plant response rating (kochia (Kochia scoparia) [15]): 0; Kochia plant response rating (0 to 100 scale) (kochia (Kochia scoparia) [15]): 0; Barnyardgrass plant response rating (0 to 100 scale) [16]: 90; Ducksalad plant response rating (0 to 100 scale) [17]: 95; Rice plant response rating (0 to 100 scale) (rice (Oryza sativa)): 0
CC1=[N+]([O-])[C@@H](C(=O)Nc2cccc(F)c2F)[C@H](c2cccc(Oc3ncc(F)cc3F)c2)C1 [Compound 70]	0	20	0	0	0	0	0	0	0	30	0	0	20	70	0	30	0	0	0	0	Barnyardgrass plant response rating [10]: 40; Barnyardgrass plant response rating (0 to 100 scale) [10]: 80; Pigweed plant response rating [11]: 0; Pigweed plant response rating (0 to 100 scale) [11]: 0; Ryegrass, Italian plant response rating [12]: 0; Ryegrass, Italian plant response rating (0 to 100 scale) [12]: 0; Foxtail, Giant plant response rating [13]: 20; Foxtail, Giant plant response rating (0 to 100 scale) [13]: 90; Ragweed plant response rating [14]: 0; Ragweed plant response rating (0 to 100 scale) [14]: 0; Kochia plant response rating (kochia (Kochia scoparia) [15]): 0; Kochia plant response rating (0 to 100 scale) (kochia (Kochia scoparia) [15]): 0; Barnyardgrass plant response rating (0 to 100 scale) [16]: 0; Ducksalad plant response rating (0 to 100 scale) [17]: 0; Rice plant response rating (0 to 100 scale) (rice (Oryza sativa)): 0
